The values below come from US20250228882A1, “ORALLY-BIOAVAILABLE NUCLEOSIDE ANALOGS” (Venatorx Pharmaceuticals, Inc., priority 2022, published 2025).

The structures appear in SMILES notation.

This data set is described as follows: Bidirectional Caco-2 permeability assay. The conditions noted are these: human, Caco-2. The data set is classed as in vitro ADME. Here is the method:
The bidirectional permeability of compounds across the Caco-2 cell monolayer was assessed. The Caco-2 model is a widely used in vitro model for small intestinal absorption and potential for efflux. Cell culture. Caco-2 cells were grown in DMEM supplemented with 10% fetal bovine serum (FBS), 1% Penicillin-Streptomycin and 1% MEMNEAA. The cells were incubated at 37° C., 5% CO2/95% air and saturated humidity. After reaching 80-90% confluency, the cells were gently detached with trypsin. Cells at passage 39 were seeded on the 24-well BD insert system at the density of 8×10^4 cells/cm^2 and cultured for 19 days with medium changed every 2-3 days. Measure the transepithelial electrical resistance (TEER) value of each well. The wells can be used only when their TEER values are greater than 600 Ohms/cm^2.
Transport assay. After removing the cell culture medium from the 24-well insert plate, the cells were rinsed with warm transport buffer. Appropriate dosing and receiving solutions were applied to the donor and receiver chambers to initiate the transport assay in apical to basolateral (A to B) or basolateral to apical (B to A) directions (500 and 1300 μL for apical and basolateral wells, respectively). Duplicate wells in each direction were used for the test compound and control compound. The plate was incubated in CO2 incubator at 37° C., with 5% CO2/95% air and saturated humidity without shaking. The sample after 10-minute incubation was used as the To sample, and the sample after 90-minute incubation was used as the T90 sample. To and T90 samples were collected from the donor and receiver side of each well at the designed timepoint, mixed with the transport buffer and acetonitrile/MeOH (1:1, v/v) and the internal standard for LC/MS/MS analysis. All samples were vortexed and centrifuged at 4000 rpm at 4° C. for 15 minutes, diluted with pure water and stored at 4° C. before bioanalysis by LC/MS/MS.
Sample analysis. The concentrations of test compounds and control compounds in Caco-2 cells were quantitatively determined by LC/MS/MS method after protein precipitation.
Calculations. The apparent permeability (Papp, cm/s), efflux ratio (ER) and recovery parameters were calculated for Caco-2 drug transport assay using the following equations: […]
where VR is the solution volume in the receiver chamber (0.4 mL on the apical side, 1.2 mL on the basolateral side); Area is the surface area for the insert membrane, i.e., 0.3 cm^2 for the area of the monolayer; Time is incubation time, expressed in seconds, i. e., 5400 s (90 min) for the current experiment; Co is the initial concentration of test compound or peak area ratio of control compounds in the donor chamber (M); VD is the volume in the donor chambers (0.4 mL on the apical side, 1.2 mL on the basolateral side); CD and CR are the final concentrations of test compounds or peak area ratio of control compounds in donor and receiver chambers, respectively.
Compounds with Papp<1.0 are classified as low permeability, Papp between 1-10 are classified as medium permeability, and Papp>10 are classified as high permeability. An efflux ratio (ER)>2 indicates the compounds are potential substrates for intestinal cell efflux transporters.
For `CCCCC(=O)Nc1ncnn2c([C@]3(C#N)O[C@H](COC(=O)CC4CCCC4)[C@@H](OC(=O)[C@@H](N)C(C)(C)C)[C@H]3O)ccc12` [Compound 54, (2R,3S,4R,5R)-5-cyano-2-((2-cyclopentylacetoxy)methyl)-4-hydroxy-5-(4-pentanamidopyrrolo[2,1-f][1,2,4]triazin-7-yl)tetrahydrofuran-3-yl (S)-2-amino-3,3-dimethylbutanoate], the apparent permeability from apical to basolateral (Papp A→B) at 90 min amounted to 3.41 ×10⁻⁶ cm/s, the Papp B→A at 90 min came out at 5.47 ×10⁻⁶ cm/s and the efflux ratio at 90 min came to 1.6.
The corresponding values for `CCCCCC(=O)Nc1ncnn2c([C@]3(C#N)O[C@H](COC(=O)CC4CCCC4)[C@@H](OC(=O)[C@@H](N)C(C)(C)C)[C@H]3O)ccc12` [Compound 55, (2R,3S,4R,5R)-5-cyano-2-((2-cyclopentylacetoxy)methyl)-5-(4-hexanamidopyrrolo[2,1-f][1,2,4]triazin-7-yl)-4-hydroxytetrahydrofuran-3-yl (S)-2-amino-3,3-dimethylbutanoate] are 2.74 ×10⁻⁶ cm/s, 3.63 ×10⁻⁶ cm/s and 1.33.
The corresponding values for `CCC(CC)C(=O)Nc1ncnn2c([C@]3(C#N)O[C@H](COC(=O)CC4CCCC4)[C@@H](OC(=O)[C@@H](N)C(C)(C)C)[C@H]3O)ccc12` [Compound 56, (2R,3S,4R,5R)-5-cyano-2-((2-cyclopentylacetoxy)methyl)-5-(4-(2-ethylbutanamido)pyrrolo[2,1-f][1,2,4]triazin-7-yl)-4-hydroxytetrahydrofuran-3-yl (S)-2-amino-3,3-dimethylbutanoate] are 7.61 ×10⁻⁶ cm/s, 7.57 ×10⁻⁶ cm/s and 0.99.
The matching figures for `COC(C)(C)C(=O)Nc1ncnn2c([C@]3(C#N)O[C@H](COC(=O)CC4CCCC4)[C@@H](OC(=O)[C@@H](N)C(C)(C)C)[C@H]3O)ccc12` [Compound 57, (2R,3S,4R,5R)-5-cyano-2-((2-cyclopentylacetoxy)methyl)-4-hydroxy-5-(4-(2-methoxy-2-methylpropanamido)pyrrolo[2,1-f][1,2,4]triazin-7-yl)tetrahydrofuran-3-yl (S)-2-amino-3,3-dimethylbutanoate]: 16.4 ×10⁻⁶ cm/s, 10.1 ×10⁻⁶ cm/s and 0.61.
`CCCCC(=O)Nc1ncnn2c([C@]3(C#N)O[C@H](COC(=O)CC4CCCCCC4)[C@@H](OC(=O)[C@@H](N)C(C)(C)C)[C@H]3O)ccc12` [Compound 61, (2R,3S,4R,5R)-5-cyano-2-((2-cycloheptylacetoxy)methyl)-4-hydroxy-5-(4-pentanamidopyrrolo[2,1-f][1,2,4]triazin-7-yl)tetrahydrofuran-3-yl (S)-2-amino-3,3-dimethylbutanoate]: the apical-to-basolateral permeability (Papp A→B) at 90 min was 1.07 ×10⁻⁶ cm/s, the Papp B→A at 90 min was determined as 0.65 ×10⁻⁶ cm/s and the efflux ratio at 90 min is 0.6.
In the case of `CCC(CC)C(=O)Nc1ncnn2c([C@]3(C#N)O[C@H](COC(=O)CC4CCCCCC4)[C@@H](OC(=O)[C@@H](N)C(C)(C)C)[C@H]3O)ccc12` [Compound 62, (2R,3S,4R,5R)-5-cyano-2-((2-cycloheptylacetoxy)methyl)-5-(4-(2-ethylbutanamido)pyrrolo[2,1-f][1,2,4]triazin-7-yl)-4-hydroxytetrahydrofuran-3-yl (S)-2-amino-3,3-dimethylbutanoate], the apparent permeability from apical to basolateral (Papp A→B) at 90 min came out at 1.4 ×10⁻⁶ cm/s, the Papp B→A at 90 min turned out to be 0.89 ×10⁻⁶ cm/s and the efflux ratio at 90 min was 0.64.
The matching figures for `COC(C)(C)C(=O)Nc1ncnn2c([C@]3(C#N)O[C@H](COC(=O)CC4CCCCCC4)[C@@H](OC(=O)[C@@H](N)C(C)(C)C)[C@H]3O)ccc12` [Compound 63, (2R,3S,4R,5R)-5-cyano-2-((2-cycloheptylacetoxy)methyl)-4-hydroxy-5-(4-(2-methoxy-2-methylpropanamido)pyrrolo[2,1-f][1,2,4]triazin-7-yl)tetrahydrofuran-3-yl (S)-2-amino-3,3-dimethylbutanoate]: 4.01 ×10⁻⁶ cm/s, 2.79 ×10⁻⁶ cm/s and 0.7.
The matching figures for `CCCCOC(=O)Nc1ncnn2c([C@]3(C#N)O[C@H](COC(=O)CC4CCCCCC4)[C@@H](OC(=O)[C@@H](N)C(C)(C)C)[C@H]3O)ccc12` [Compound 65, (2R,3S,4R,5R)-5-(4-((butoxycarbonyl)amino)pyrrolo[2,1-f][1,2,4]triazin-7-yl)-5-cyano-2-((2-cycloheptylacetoxy)methyl)-4-hydroxytetrahydrofuran-3-yl (S)-2-amino-3,3-dimethylbutanoate]: 0.79 ×10⁻⁶ cm/s, 0.5 ×10⁻⁶ cm/s and 0.62.
The matching figures for `CCOC(C)(C)C(=O)Nc1ncnn2c([C@]3(C#N)O[C@H](COC(=O)CC4CCCC4)[C@@H](OC(=O)[C@@H](N)C(C)(C)C)[C@H]3O)ccc12` [Compound 66, (2R,3S,4R,5R)-5-cyano-2-((2-cyclopentylacetoxy)methyl)-5-(4-(2-ethoxy-2-methylpropanamido)pyrrolo[2,1-f][1,2,4]triazin-7-yl)-4-hydroxytetrahydrofuran-3-yl (S)-2-amino-3,3-dimethylbutanoate]: 5.1 ×10⁻⁶ cm/s, 5.79 ×10⁻⁶ cm/s and 1.13.
As to `CCOC(C)(C)C(=O)Nc1ncnn2c([C@]3(C#N)O[C@H](COC(=O)CC4CCCCCC4)[C@@H](OC(=O)[C@@H](N)C(C)(C)C)[C@H]3O)ccc12` [Compound 67, (2R,3S,4R,5R)-5-cyano-2-((2-cycloheptylacetoxy)methyl)-5-(4-(2-ethoxy-2-methylpropanamido)pyrrolo[2,1-f][1,2,4]triazin-7-yl)-4-hydroxytetrahydrofuran-3-yl (S)-2-amino-3,3-dimethylbutanoate], the Papp A→B at 90 min was determined as 4.78 ×10⁻⁶ cm/s, the Papp B→A at 90 min is 2.54 ×10⁻⁶ cm/s and the efflux ratio at 90 min was found to be 0.53.
The matching figures for `COC(C)(C)C(=O)Nc1ncnn2c([C@]3(C#N)O[C@H](COC(=O)CC4CCCCC4)[C@@H](OC(=O)[C@H](N)C(C)(C)C)[C@H]3O)ccc12` [Compound 68, (2R,3S,4R,5R)-5-cyano-2-((2-cyclohexylacetoxy)methyl)-4-hydroxy-5-(4-(2-methoxy-2-methylpropanamido)pyrrolo[2,1-f][1,2,4]triazin-7-yl)tetrahydrofuran-3-yl (R)-2-amino-3,3-dimethylbutanoate]: 3.22 ×10⁻⁶ cm/s, 4.04 ×10⁻⁶ cm/s and 1.25.
With `CCC(CC)C(=O)Nc1ncnn2c([C@]3(C#N)O[C@H](COC(=O)CC4CCCCC4)[C@@H](OC(=O)[C@H](N)C(C)(C)C)[C@H]3O)ccc12` [Compound 69, (2R,3S,4R,5R)-5-cyano-2-((2-cyclohexylacetoxy)methyl)-5-(4-(2-ethylbutanamido)pyrrolo[2,1-f][1,2,4]triazin-7-yl)-4-hydroxytetrahydrofuran-3-yl (R)-2-amino-3,3-dimethylbutanoate], the Papp A→B at 90 min stood at 3.19 ×10⁻⁶ cm/s, the Papp B→A at 90 min amounted to 4.38 ×10⁻⁶ cm/s and the efflux ratio at 90 min amounted to 1.37.
`COC(C)(C)C(=O)Nc1ncnn2c([C@]3(C#N)O[C@H](COC(=O)CC4CCCCCC4)[C@@H](OC(=O)[C@H](N)C(C)(C)C)[C@H]3O)ccc12` [Compound 70, (2R,3S,4R,5R)-5-cyano-2-((2-cycloheptylacetoxy)methyl)-4-hydroxy-5-(4-(2-methoxy-2-methylpropanamido)pyrrolo[2,1-f][1,2,4]triazin-7-yl)tetrahydrofuran-3-yl (R)-2-amino-3,3-dimethylbutanoate]: the Papp A→B at 90 min was 2.13 ×10⁻⁶ cm/s, the Papp B→A at 90 min came to 2.2 ×10⁻⁶ cm/s and the efflux ratio at 90 min was 1.03.
The matching figures for `CCCCOC(C)(C)C(=O)Nc1ncnn2c([C@]3(C#N)O[C@H](COC(=O)CC4CCCC4)[C@@H](OC(=O)[C@@H](N)C(C)(C)C)[C@H]3O)ccc12` [Compound 71, (2R,3S,4R,5R)-5-(4-(2-butoxy-2-methylpropanamido)pyrrolo[2,1-f][1,2,4]triazin-7-yl)-5-cyano-2-((2-cyclopentylacetoxy)methyl)-4-hydroxytetrahydrofuran-3-yl(S)-2-amino-3,3-dimethylbutanoate]: 0.67 ×10⁻⁶ cm/s, 8.18 ×10⁻⁶ cm/s and 12.1.

The Papp A→B is the apparent permeability from the apical to the basolateral side of a cell layer. A word on the Papp B→A: it is how fast a substance crosses the layer from the basolateral side. For orientation: efflux ratio means a quotient of directional permeabilities that is used to spot active efflux.
